{"source": "patent US10364216B2", "about": "“Alkenyl sulfate ester or salt thereof” (Kao Corporation, priority 2013, dated 2019)", "format_in_all_cases": "in vivo, human", "key": {"[1]": {"experiment": "Sweetness adjusting action on sucrose, aspartame, sucralose, glycyrrhizin (simultaneous intake)", "details": "sucrose 7.5 wt %, aspartame 494 ppm, sucralose 0.49 mM, glycyrrhizin 303 ppm, alone or containing 5 mM trans-3-octenyl sulfate, scale 0 to 15; for Sweetness intensity (mean) When drinking water after 30 seconds: 10 mL pure water 30 seconds after sample; for Sweetness intensity (mean) When drinking sample: 10 mL", "description": "To seven examiners, four kinds of 10 mL aqueous sucrose standard solutions (2.5, 5.0, 7.5 and 10.0 wt %) were presented. The examiners kept each of the solutions in their mouth for 5 seconds or so, and then spat the solution out, and were asked to consider the sweetness intensity at that time (0 to 15) to be 2.5, 5, 7.5 and 10, respectively. Next, the examiners kept 10 mL aqueous solution (7.5 wt %) of sucrose in their mouth for 5 seconds or so without knowing the kind and the concentration of the sweetener, and then spat the solution out, and compared the sweetness intensity at that time with that of the aqueous sucrose standard solution, and evaluated the sweetness intensity with a number in a range of 0 to 15. In addition, after 30 seconds, the examiners kept 10 mL pure water in their mouth, and then spat the solution out, and compared the sweetness intensity felt at that time with that of the aqueous sucrose standard solution, and evaluated the sweetness intensity in the same manner. Subsequently, the examiners were presented with 10 mL aqueous sucrose solution containing 5 mM trans-3-octenyl sulfate (7.5 wt %), and kept it in their mouth for 5 seconds or so, and then spat the solution out, and compared the sweetness intensity at that time with the sweetness intensity of the aqueous sucrose standard solution, and evaluated the sweetness intensity in the same manner. In addition, immediately after that, the examiners kept 10 mL pure water in their mouth for 5 seconds or so, and then spat the solution out, and compared the sweetness intensity at that time with that of the aqueous sucrose standard solution, and evaluated the sweetness intensity in the same manner. In addition, after 30 seconds, the examiners kept 10 mL pure water in their mouth, and then spat the solution out, and compared the sweetness intensity felt at that time with that of the aqueous sucrose standard solution, and evaluated the sweetness intensity in the same manner.\nTo seven examiners, 4 kinds of 10 mL aqueous sucrose standard solutions (2.5, 5.0, 7.5 and 10.0 wt %) were presented. The examiners kept each of the solutions in their mouth for 5 seconds or so, and then spat the solution out, and were asked to consider the sweetness intensity at that time (0 to 15) to be 2.5, 5, 7.5 and 10, respectively. Next, the examiners kept 10 mL aqueous solution of aspartame (494 ppm) in their mouth for 5 seconds or so without knowing the kind and the concentration of the sweetener, and then spat the solution out, and compared the sweetness intensity at that time with that of the aqueous sucrose standard solution, and evaluated the sweetness intensity with a number in a range of 0 to 15. The concentration of aspartame was prepared to have the same sweetness intensity as that of the aqueous sucrose solution (7.5 wt %) in accordance with the reference (Schiffman, S. S. et al. Chemical senses, 1999, 24, 439-447.). In addition, after 30 seconds, the examiners kept 10 mL pure water in their mouth, and then spat the solution out, and compared the sweetness intensity felt at that time with that of the aqueous sucrose standard solution, and evaluated the sweetness intensity in the same manner. Subsequently, the examiners were presented with 10 mL aqueous solution of aspartame containing 5 mM trans-3-octenyl sulfate (494 ppm), and kept it in their mouth for 5 seconds or so, and then spat the solution out, and compared the sweetness intensity at that time with the sweetness intensity of the sucrose standard solution, and evaluated the sweetness intensity in the same manner. In addition, after 30 seconds, the examiners kept 10 mL pure water in their mouth, and then spat the solution out, and compared the sweetness intensity felt at that time with that of the aqueous sucrose standard solution, and evaluated the sweetness intensity in the same manner. […]"}, "[2]": {"experiment": "Action of reinforcing sweetness (previous intake of trans-3-octenyl sulfate)", "details": "scale 0 to 15, six examiners", "description": "To six examiners, 4 kinds of 10 mL aqueous solutions of sucrose standard (2.5, 5.0, 7.5 and 10.0 wt %) were presented. The examiners kept each of the solutions in their mouth for 5 seconds or so, and then spat the solution out, and were asked to consider the sweetness intensity at that time (0 to 15) to be 2.5, 5, 7.5 and 10, respectively. Next, the examiners kept 10 mL aqueous solution of sucralose (0.25 mM) in their mouth for 5 seconds or so without knowing the kind and the concentration of the sweetener, and then spat the solution out, and compared the sweetness intensity at that time with that of the aqueous sucrose standard solution, and evaluated the sweetness intensity with a number in a range of 0 to 15. Subsequently, the examiners kept 10 mL solution of 5 mM trans-3-octenyl sulfate in advance in their mouth for 5 seconds or so in advance, and then spat the solution out, and after passage of 60 seconds, the examiners kept 10 mL aqueous solution of sucralose (0.25 mM) in their mouth for 5 seconds or so, and then spat the solution out, and compared the sweetness intensity at that time with that of the aqueous sucrose standard solution, and evaluated the sweetness intensity with a number in a range of 0 to 15.\nTo six examiners, 4 kinds of 10 mL aqueous sucrose standard solutions (2.5, 5.0, 7.5 and 10.0 wt %) were presented. The examiners kept each of the solutions in their mouth for 5 seconds or so, and then spat the solution out, and were asked to consider the sweetness intensity at that time (0 to 15) to be 2.5, 5, 7.5 and 10, respectively. Next, the examiners kept 10 mL aqueous solution of glycyrrhizin (0.25 mM) in their mouth for 5 seconds or so without knowing the kind and the concentration of the sweetener, and then spat the solution out, and compared the sweetness intensity at that time with that of the aqueous sucrose standard solution, and evaluated the sweetness intensity with a number in a range of 0 to 15. Subsequently, the examiners kept 10 mL solution of 5 mM trans-3-octenyl sulfate in their mouth for 5 seconds or so in advance, and then spat the solution out, and after passage of 60 seconds, the examiners kept 10 mL aqueous solution of glycyrrhizin (0.25 mM) in their mouth for 5 seconds or so, and then spat the solution out, and compared the sweetness intensity at that time with that of the aqueous sucrose standard solution, and evaluated the sweetness intensity with a number in a range of 0 to 15."}, "[3]": {"experiment": "Evaluation of sweetness (1)/(2): presence or absence of sweetness judged by examiners", "description": "Trans-3-octenyl sulfate was dissolved in water to be 1 wt %, which was taken as a test sample. Six examiners kept 50 μL of the prepared test sample in their mouth, and then drunk some water, and judged for presence or absence of sweetness.\nCis-3-octenyl sulfate was dissolved in water to 1 wt %, which was taken as a test sample. Four examiners kept 50 μL of the prepared test sample in their mouth, and then drunk some water, and judged presence or absence of sweetness."}, "[4]": {"experiment": "Evaluation of sweetness (3)/(4): sweetness intensity over time against sucrose standard solutions", "description": "(§1) To seven examiners, 4 kinds of 10 mL aqueous sucrose standard solutions (2.5, 5.0, 7.5 and 10.0 wt %) were presented. The examiners kept each of the solutions in their mouth for 5 seconds or so, and then spat the solution out, and were asked to consider the sweetness intensity at that time (0 to 15) to be 2.5, 5, 7.5 and 10, respectively. Next, the examiners kept 10 mL solution of 10 mM trans-3-octenyl sulfate in their mouth for 5 seconds or so, and then spat the solution out, and compared the sweetness intensity at that time with that of the aqueous sucrose standard solution, and evaluated the sweetness intensity with a number in a range of 0 to 15. Then, the examiners kept 10 mL pure water for 5 minutes at an interval of 30 seconds, and then spat the solution out, and evaluated the sweetness intensity at that time in the same manner.\nas §1, with “four” for “4”, “cis-3-octenyl” for “trans-3-octenyl”, “water in their mouth” for “water”"}, "[5]": {"details": "No previous intake of trans-3-octenyl sulfate, 10 mL sweetener 0.25 mM"}, "[6]": {"details": "Previous intake of 10 mL 5 mM trans-3-octenyl sulfate, 60 seconds before 10 mL sweetener 0.25 mM"}, "[7]": {"details": "1 wt % in water, 50 μL kept in mouth, then water (13 ml), six examiners (trans), four examiners (cis)"}}, "note": "Counter-ions that a name gives are not always drawn. Residues, ends and D or L forms follow the SMILES beside them."}
{"smiles": "OC[C@H]1O[C@@](CO)(O[C@H]2O[C@H](CO)[C@@H](O)[C@H](O)[C@H]2O)[C@@H](O)[C@@H]1O", "note": "[Sucrose, sucrose]", "values": [{"measurement": "Sweetness intensity (mean) When drinking water after 30 seconds", "setting": "[1]", "value": 0.1}, {"measurement": "Sweetness intensity (mean) When drinking sample", "setting": "[1]", "value": 7.1}]}
{"smiles": "OC[C@H]1O[C@H](O[C@]2(CCl)O[C@H](CCl)[C@@H](O)[C@@H]2O)[C@H](O)[C@@H](O)[C@H]1Cl", "note": "[Sucralose, sucralose]", "values": [{"measurement": "Sweetness intensity (mean) When drinking water after 30 seconds", "setting": "[1]", "value": 0.4}, {"measurement": "Sweetness intensity (mean) When drinking sample", "setting": "[1]", "value": 8.4}, {"measurement": "Sweetness intensity (mean)", "setting": "[2]; [5]", "value": 7.3}, {"measurement": "Sweetness intensity (mean)", "setting": "[2]; [6]", "value": 10.2}]}
{"smiles": "CCCC/C=C\\CCOS(=O)(=O)O", "note": "[cis-3-octenyl sulfate]", "values": [{"measurement": "No sweetness felt (number of examiners)", "setting": "[3]; [7]", "value": 0}, {"measurement": "Sweetness felt (number of examiners)", "setting": "[3]; [7]", "value": 4}, {"measurement": "Duration of sweetness", "setting": "[3]; 1 wt %, 50 μL, then water", "value": "the sweetness lasted for a certain time"}, {"measurement": "Examiners who recognized the sweetness by virtue of intake of water", "setting": "[4]; 10 mL of 10 mM solution, then pure water every 30 seconds", "value": "seven out of the seven"}, {"measurement": "Duration of sweetness", "setting": "[4]; 10 mL of 10 mM solution, then pure water every 30 seconds for 5 minutes", "value": "the sweetness lasted for a certain time"}, {"measurement": "Sweetness intensity (mean)", "setting": "[4]; Time 0 minute, 10 mL of 10 mM solution kept 5 seconds, scale 0 to 15 vs sucrose standards, seven examiners", "value": 0.0}, {"measurement": "Sweetness intensity (mean)", "setting": "[4]; Time 0.5 minute, on keeping 10 mL pure water, after 10 mM solution, scale 0 to 15", "value": 1.8}, {"measurement": "Sweetness intensity (mean)", "setting": "[4]; Time 1 minute, on keeping 10 mL pure water, after 10 mM solution, scale 0 to 15", "value": 3.2}, {"measurement": "Sweetness intensity (mean)", "setting": "[4]; Time 1.5 minute, on keeping 10 mL pure water, after 10 mM solution, scale 0 to 15", "value": 3.4}, {"measurement": "Sweetness intensity (mean)", "setting": "[4]; Time 2 minute, on keeping 10 mL pure water, after 10 mM solution, scale 0 to 15", "value": 2.6}, {"measurement": "Sweetness intensity (mean)", "setting": "[4]; Time 2.5 minute, on keeping 10 mL pure water, after 10 mM solution, scale 0 to 15", "value": 2.1}, {"measurement": "Sweetness intensity (mean)", "setting": "[4]; Time 3 minute, on keeping 10 mL pure water, after 10 mM solution, scale 0 to 15", "value": 1.4}, {"measurement": "Sweetness intensity (mean)", "setting": "[4]; Time 3.5 minute, on keeping 10 mL pure water, after 10 mM solution, scale 0 to 15", "value": 1.4}, {"measurement": "Sweetness intensity (mean)", "setting": "[4]; Time 4 minute, on keeping 10 mL pure water, after 10 mM solution, scale 0 to 15", "value": 0.9}, {"measurement": "Sweetness intensity (mean)", "setting": "[4]; Time 4.5 minute, on keeping 10 mL pure water, after 10 mM solution, scale 0 to 15", "value": 0.5}, {"measurement": "Sweetness intensity (mean)", "setting": "[4]; Time 5 minute, on keeping 10 mL pure water, after 10 mM solution, scale 0 to 15", "value": 0.5}]}
{"smiles": "COC(=O)[C@H](Cc1ccccc1)NC(=O)[C@@H](N)CC(=O)O", "note": "[Aspartame, aspartame] (H-Asp-Phe-OMe)", "values": [{"measurement": "Sweetness intensity (mean) When drinking water after 30 seconds", "setting": "[1]", "value": 1.0}, {"measurement": "Sweetness intensity (mean) When drinking sample", "setting": "[1]", "value": 7.1}]}
{"smiles": "CC1(C)[C@@H](O[C@H]2O[C@H](C(=O)O)[C@@H](O)[C@H](O)[C@H]2O[C@@H]2O[C@H](C(=O)O)[C@@H](O)[C@H](O)[C@H]2O)CC[C@]2(C)[C@H]3C(=O)C=C4[C@@H]5C[C@@](C)(C(=O)O)CC[C@]5(C)CC[C@@]4(C)[C@]3(C)CC[C@@H]12", "note": "[Glycyrrhizin, glycyrrhizin]", "values": [{"measurement": "Sweetness intensity (mean) When drinking water after 30 seconds", "setting": "[1]", "value": 3.2}, {"measurement": "Sweetness intensity (mean) When drinking sample", "setting": "[1]", "value": 4.1}, {"measurement": "Sweetness intensity (mean)", "setting": "[2]; [5]", "value": 3.4}, {"measurement": "Sweetness intensity (mean)", "setting": "[2]; [6]", "value": 7.3}]}
